In US20070037752A1, “Novel alanyl-amino peptidase inhibitors for functionally influencing different cells and treating immunological, inflammatory, neuronal, and other diseases” (priority 2003, published 2007) one finds IC50 and IC50APN data, which are given here for 77 compounds.

This experiment addresses alanyl aminopeptidases (APN) (Homo sapiens, UniProt P15144). The experiment can be described thus: Inhibition of alanyl aminopeptidase enzymatic activity, fluorogenic substrate (Ala)2-rhodamine 110. Format: biochemical. Particulars: for IC50: read-out: IC50APN. Here is the method: The inhibition characteristics measured are referred to as IC-50 values or ID50 values (the latter marked with “*”) for said enzyme. The enzymatic activity was determined by means of the fluorogenic substrate/product (Ala)2-rhodamine 110.

Read-outs that look alike come from different tables or passages of the source. Non-standard residues stand in square brackets, D forms with d. Residues, ends and D or L forms follow the SMILES beside them. *: point of attachment. OBn = c1ccc(CO*)cc1

alanyl aminopeptidases (APN), sequence (P15144 whole entry, species assumed): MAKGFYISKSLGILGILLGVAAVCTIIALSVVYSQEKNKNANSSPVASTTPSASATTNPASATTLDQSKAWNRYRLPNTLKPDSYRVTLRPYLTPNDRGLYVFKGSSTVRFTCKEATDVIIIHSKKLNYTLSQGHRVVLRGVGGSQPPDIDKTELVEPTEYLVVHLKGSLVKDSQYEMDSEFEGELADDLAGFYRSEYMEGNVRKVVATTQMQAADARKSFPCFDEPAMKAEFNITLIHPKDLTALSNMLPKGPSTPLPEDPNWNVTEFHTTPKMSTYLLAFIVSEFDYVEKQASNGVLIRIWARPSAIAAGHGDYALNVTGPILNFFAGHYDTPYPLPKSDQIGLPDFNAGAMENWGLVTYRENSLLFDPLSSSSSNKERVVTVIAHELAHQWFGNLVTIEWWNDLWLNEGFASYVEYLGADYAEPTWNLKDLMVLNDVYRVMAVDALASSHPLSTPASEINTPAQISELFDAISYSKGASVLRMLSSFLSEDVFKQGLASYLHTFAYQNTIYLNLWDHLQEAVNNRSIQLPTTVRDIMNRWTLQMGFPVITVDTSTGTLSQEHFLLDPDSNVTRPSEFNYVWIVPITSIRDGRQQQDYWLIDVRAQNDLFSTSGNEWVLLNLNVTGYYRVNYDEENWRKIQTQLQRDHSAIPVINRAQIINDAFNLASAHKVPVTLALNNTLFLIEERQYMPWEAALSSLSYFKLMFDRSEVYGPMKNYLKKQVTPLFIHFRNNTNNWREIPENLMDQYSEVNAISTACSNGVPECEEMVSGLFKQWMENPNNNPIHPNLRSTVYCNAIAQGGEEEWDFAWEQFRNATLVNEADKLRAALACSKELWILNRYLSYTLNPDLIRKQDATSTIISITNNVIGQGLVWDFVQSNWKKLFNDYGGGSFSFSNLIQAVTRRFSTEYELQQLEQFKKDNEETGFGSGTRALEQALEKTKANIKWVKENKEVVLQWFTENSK

`Cc1cc(Cl)ccc1OCCCC(=O)NO` [A12.006]: under “Table 12”, the IC50 amounted to 5.6 µM. The same measure, in the same setting: next, `COC(=O)c1cccc(-c2ccc(/C=C3\C(=O)N(CCO)C(=O)C(C#N)=C3C)o2)c1` [A12.007]: 6.3 µM; `O=C(CCOC(c1ccccc1)c1ccc(Br)cc1)NO` (centres unmarked) [A12.008]: 6.3 µM; `O=C(COc1ccc(Br)cc1)NO` [A12.009]: 6.4 µM. Consider `CCc1cccc(CC)c1NC(=S)N/N=C1\C(=O)N(CN2CC(C)CC(C)C2)c2ccccc21` (centres unmarked) [A12.010], for which the IC50 (Table 12) turned out to be 6.7 µM.

In the case of `NCCCC[C@@H](N)C(=O)N[C@H](Cc1ccccc1)C(=O)N[C@H](Cc1ccc(O)cc1)C(=O)O` [A12.011] (H-[dK]-[dF]-[dY]-OH), the IC50 (Table 12) came out at 7.3 µM. On the same count and under the same terms, then `CCOc1ccc(CC(=O)NO)cc1` [A12.013], with 7.5 µM.

As to `O=C(ON1C(=O)CCC1=O)C1CCC(=O)N1C(=O)OCc1ccccc1` (centres unmarked) [A12.015], where the note is “Table 12”, the IC50 worked out at 7.5 µM. Same read-out and setting: next, `CCC(C)C(NC(=O)C(N)CC(=O)OCc1ccccc1)C(=O)NC(Cc1ccccc1)C(=O)OC` (stereo not drawn) [A12.016] (H-Asp(OBn)-Ile-Phe-OMe; configuration not given here): 8.6 µM.

As to `C/C(=N/O)c1ccc2c(c1)OCCOCCOc1cc(/C(C)=N\O)ccc1OCCOCCO2` [A12.017], under “Table 12”, the IC50 worked out at 8.6 µM. `Cc1ccc(C(=O)N/C(=C\c2ccco2)C(=O)N2CC3CC(C2)c2cccc(=O)n2C3)cc1` (centres unmarked) [A12.019]: the IC50 (Table 12) turned out to be 11 µM. The same measure, in the same setting: then `O=C(CS(=O)(=O)c1ccc(Cl)cc1)NO` [A12.021], with 11.5 µM; and `CCCOC(=O)c1cc(-c2ccc(/C=C3\C(=O)N(CCCO)C(=O)C(C#N)=C3C)o2)ccc1Cl` [A12.022], with 23.8 µM; and `CN(C)CCCN1CCN(c2nc(N(C)CC(=O)O)c3ncn(Cc4ccc([N+](=O)[O-])cc4)c3n2)CC1` [A12.023], with 11.8 µM.

Consider `O=C(O)SCCC1NC(=S)N(c2ccccc2)C1=O` (centres unmarked) [A12.024], for which the IC50 (Table 12) turned out to be 12 µM.

As for `CC(C)COc1ccc(C(=O)N/C(=C\c2ccco2)C(=O)N2CCOCC2)cc1` [A12.025], the IC50 (Table 12) stood at 13.1 µM. Same read-out and setting: next, `COc1ccc(Cl)cc1NC(O)CCN1C(=O)C2C3C=CC(C3)C2C1O` (centres unmarked) [A12.026]: 13.4 µM; `CSCCC1NC(=S)N(Cc2ccccc2)C1=O` (centres unmarked) [A12.027]: 14.1 µM. As to `O=C(CCCCCN1C(=O)c2cccc3cccc(c23)C1=O)NO` [A12.028], the IC50 (Table 12) turned out to be 14.1 µM. On the same count and under the same terms, next, `Cc1ccc(C(OCCC(=O)NO)c2ccc(C)cc2)cc1` [A12.029]: 14.2 µM. As to `CC1=C(C#N)C(=O)N(CCCO)C(=O)/C1=C\c1ccc(-c2ccc(Br)cc2)o1` [A12.030], where the note is “Table 12”, the IC50 came out at 16 µM.

As for `O=C(O)C1N=NC(c2ccc(F)cc2)=CN1O` (centres unmarked) [A12.031], the IC50 (Table 12) was 17.1 µM.

Take `Cc1ccc(NC(=O)/C(=C\c2ccco2)NC(=O)c2ccccc2Cl)cc1` [A12.033]: the IC50 (Table 12) stood at 17.9 µM. The same measure, in the same setting: next, `CC(=O)c1cccc(-c2ccc(/C=C3/C(=O)N(CCCO)C(=O)C(C#N)=C3C)o2)c1` [A12.034]: 18.2 µM. As for `O=C(N/C(=C\c1ccco1)C(=O)N1CCCC(CO)C1)c1ccccc1` (centres unmarked) [A12.035], the IC50 (Table 12) came to 19 µM. Take `CCOC(=O)C(NC(=O)c1ccccc1)(Nc1ccc(OC)cc1OC)C(F)(F)F` (centres unmarked) [A12.036]: the IC50 (Table 12) was found to be 19 µM. Still for that read-out and setting: next, `COc1ccc(C[C@@H](N)C(=O)N[C@H]2[C@H](O)[C@H](n3cnc4c(N(C)C)ncnc43)O[C@@H]2CO)cc1` [A12.037]: 20.9 µM; `O=C(N/C(=C\c1ccco1)C(=O)N1CCC(O)CC1)c1ccccc1` [A12.038]: 21.1 µM.

With `NCC(O)CNCCc1ccccc1` (centres unmarked) [A12.039], for the setting “Table 12”, the IC50 came to 21.2 µM. For `CCOC(=O)C(NC(=O)c1cccc(Cl)c1)(Nc1ccc(OC)cc1OC)C(F)(F)F` (centres unmarked) [A12.040], for the setting “Table 12”, the IC50 worked out at 21.7 µM.

In the case of `O=C(CCOC(c1ccc(F)cc1)c1ccc(F)cc1)NO` [A12.041], the IC50 (Table 12) was 21.8 µM. Same read-out and setting: then `CN(C)CCCN1CCN(c2nc(N(C)CC(=O)O)c3ncn(Cc4ccc(C(F)(F)F)cc4)c3n2)CC1` [A12.042], with 23 µM; and `CC(CCc1ccccc1)C(=O)NO` (centres unmarked) [A12.044], with 25.2 µM. Still for that read-out and setting: next, `O=C(NC(Sc1ccncn1)C(=O)c1ccccc1)c1ccccc1` (centres unmarked) [A12.045]: 26.9 µM. Turning to `N#C/C(=C\c1ccc(N2Cc3ccccc3C2)cc1)C(=O)NCC1CCCO1` (centres unmarked) [A12.047], for the setting “Table 12”, the IC50 worked out at 28.1 µM.

Take `CC1=C(C#N)C(=O)N(CC(C)O)C(=O)/C1=C/c1ccc(-c2cccc(Cl)c2C)o1` (centres unmarked) [A12.048]: the IC50 (Table 12) amounted to 28.6 µM. As to `CCOC(=O)C(NC(=O)c1ccccc1)(N1CCC(Cc2ccccc2)CC1)C(F)(F)F` (centres unmarked) [A12.049], where the note is “Table 12”, the IC50 came out at 29.9 µM. On the same count and under the same terms, then `Cc1ccc(C(=O)N/C(=C/c2ccco2)C(=O)N(C)C)cc1` [A12.052], with 32.5 µM; and `COc1ccc(C(OCCC(=O)NO)c2ccccc2)cc1` (centres unmarked) [A12.053], with 33 µM. For the compound `Cc1ccccc1NC(=O)C1C(c2cccs2)C(C#N)=C(SCC(=O)Nc2ccc(Br)cc2)NC1(C)O` (centres unmarked) [A12.054], for the setting “Table 12”, the IC50 came to 33.9 µM. Still for that read-out and setting: then `CC(C)C1N=C(Cc2cccnc2)N(CCCN2CCCC2=O)C1C(=O)NCc1ccccc1` (centres unmarked) [A12.055], with 34 µM.

In the case of `COC(=O)C(NC(=O)c1ccccc1)(Nc1sc2c(c1C#N)CCC(C(C)(C)C)C2)C(F)(F)F` (centres unmarked) [A12.056], the IC50 (Table 12) amounted to 43.6 µM. The same measure, in the same setting: next, `CC1=C(C#N)C(=O)N(CC(C)O)C(=O)/C1=C/c1ccc(-c2ccc(Br)cc2)o1` (centres unmarked) [A12.058]: 47.2 µM; `CSCCC(Nc1ncnc2c1oc1ccccc12)C(=O)O` (centres unmarked) [A12.060]: 48.4 µM.

Consider `CSCCC(NC(=O)c1ccc(C(F)(F)F)cc1)C(=O)NO` (centres unmarked) [A12.061], for which the IC50 (Table 12) was 51.2 µM.

In the case of `Cc1ccc(/C=C(\NC(=O)c2ccccc2)C(=O)NCCN2CCOCC2)o1` [A12.063], the IC50 (Table 12) was 55 µM. Still for that read-out and setting: then `O=C1Nc2cc(C(=O)N3CCN(c4ccccc4)CC3)ccc2NC1CSCc1ccccc1F` (centres unmarked) [A12.065], with 61.5 µM; and `N#CCCCCCCCCC(=O)NO` [A12.069], with 80.6 µM. Consider `O=C(OCCN1CCCCC1)C1c2ccccc2Oc2ccccc21` [A12.070], for which the IC50 (Table 12) worked out at 94.8 µM. `COc1c(OCC(O)C(C)(C)O)ccc2c1N=C1OC=CC1C2OC` (centres unmarked) [A12.072]: the IC50 (Table 12) is 117 µM. Regarding `CC1=C(C#N)C(=O)N(CCO)C(=O)/C1=C\c1ccc(-c2cc(Cl)ccc2Cl)o1` [A13.001], the IC50 (Table 13) was found to be 1.2 µM. Still for that read-out and setting: next, `CCOC(=O)c1ccc(-c2ccc(/C=C3\C(=O)N(CCO)C(=O)C(C#N)=C3C)o2)cc1` [A13.002]: 2.7 µM; `COC(=O)c1ccc(-c2ccc(/C=C3\C(=O)N(CCCO)C(=O)C(C#N)=C3C)o2)cc1` [A13.003]: 5 µM; `COC(=O)c1cccc(-c2ccc(/C=C3\C(=O)N(CCO)C(=O)C(C#N)=C3C)o2)c1` [A13.004]: 6.3 µM.

For `Cc1ccc(/C=N/NC(=O)c2cccc(Cl)c2)o1` [A13.005], for the setting “Table 13”, the IC50 stood at 10.5 µM. On the same count and under the same terms, next, `COC(=O)c1cc(-c2ccc(/C=C3\C(=O)N(CCCO)C(=O)C(C#N)=C3C)o2)ccc1Cl` [A13.006]: 15.2 µM. Still for that read-out and setting: then `CC1=C(C#N)C(=O)N(CCCO)C(=O)/C1=C\c1ccc(-c2ccc(Br)cc2)o1` [A13.007], with 16 µM; and `C=CCOC(=O)c1cc(-c2ccc(/C=C3/C(=O)N(CCCO)C(=O)C(C#N)=C3C)o2)ccc1Cl` [A13.008], with 18.1 µM.

With `CC(=O)c1cccc(-c2ccc(/C=C3/C(=O)N(CCCO)C(=O)C(C#N)=C3C)o2)c1` [A13.009], the IC50 (Table 13) was 18.2 µM.

Turning to `CCCOc1[nH]c(/N=C/c2ccccc2)c(C#N)c1C#N` [A13.010], the IC50 (Table 13) is 20 µM.

As to `CCCN1C(=O)C(C#N)=C(C)/C(=C\c2ccc(-c3cccc(Cl)c3C)o2)C1=O` [A13.011], the IC50 (Table 13) turned out to be 20.8 µM. Still for that read-out and setting: then `CC1=C(C#N)C(O)=NC(=O)/C1=C/c1ccc(-c2ccc(Cl)c(C(=O)OC(C)C)c2)o1` [A13.012], with 21.4 µM; and `N#C/C(=C\c1ccc(N2Cc3ccccc3C2)cc1)C(=O)NCC1CCCO1` (centres unmarked) [A13.013], with 28.1 µM.

Turning to `CC1=C(C#N)C(=O)N(CC(C)O)C(=O)/C1=C/c1ccc(-c2cccc(Cl)c2C)o1` (centres unmarked) [A13.014], for the setting “Table 13”, the IC50 amounted to 28.6 µM.

`C=CCN1C(=O)C(C#N)=C(C)/C(=C\c2ccc(-c3cc(C)c(C)cc3[N+](=O)[O-])o2)C1=O` [A13.015]: where the note is “Table 13”, the IC50 worked out at 29.3 µM.

As for `CCCOC(=O)c1cc(-c2ccc(/C=C3\C(=O)NC(=O)C(C#N)=C3C)o2)ccc1Cl` [A13.016], the IC50 (Table 13) turned out to be 36.8 µM. On the same count and under the same terms, then `CCCOC(=O)c1cc(-c2ccc(/C=C3/C(=O)N(CC(C)O)C(=O)C(C#N)=C3C)o2)ccc1Cl` (centres unmarked) [A13.017], with 32 µM. As to `CC1=C(C#N)C(O)=NC(=O)/C1=C/c1ccc(-c2ccc(Cl)cc2Cl)o1` [A13.018], the IC50 (Table 13) was 32.4 µM.

In the case of `Cc1ccccc1NC(=O)C1C(c2cccs2)C(C#N)=C(SCC(=O)Nc2ccc(Br)cc2)NC1(C)O` (centres unmarked) [A13.019], the IC50 (Table 13) is 33.9 µM. The same measure, in the same setting: next, `CCOC(=O)c1cc(-c2ccc(/C=C3\C(=O)N(CCCO)C(=O)C(C#N)=C3C)o2)ccc1Cl` [A13.020]: 41 µM. With `CC1=C(C#N)C(=O)N(CC(C)O)C(=O)/C1=C/c1ccc(-c2ccc(Br)cc2)o1` (centres unmarked) [A13.021], the IC50 (Table 13) was determined as 47.2 µM.

With `CC1CCc2c(sc(NC(=O)C(C(F)(F)F)C(F)(F)F)c2C#N)C1` (centres unmarked) [A13.022], the IC50 (Table 13) stood at 51.3 µM. With `CCCOC(=O)c1cc(-c2ccc(/C=C3\C(=O)N(CCO)C(=O)C(C#N)=C3C)o2)ccc1Cl` [A13.023], for the setting “Table 13”, the IC50 is 54 µM. Still for that read-out and setting: then `CC1=C(C#N)C(=O)N(CCO)C(=O)/C1=C\c1ccc(-c2ccc(C)c(Cl)c2)o1` [A13.024], with 125 µM.

Regarding `COC(=O)C1=C(N)N2C(=O)CSC2=C(C(=O)OC)C1` [A14.001], for the setting “Table 14”, the IC50APN entry is reported as ““positively very highly active”, means beyond measurement- scale””. As to `COC(=O)C1=C(N)N2C(=O)CSC2=C(C(=O)OC(C)C)C1` [A14.002], for the setting “Table 14”, the IC50 was determined as 5.9 µM. On the same count and under the same terms, then `CCOC(=O)C1=C2SCC(=O)N2C(N)=C(C#N)C1` [A14.003], with 23.1 µM.
